# Test results as given in US7816343B2, “Wood preservative composition” (HWD Acquisition, Inc., priority 2007, dated 2010).
# How the values were obtained:
# [1] = Compatibility Test B: mixtures of single borate esters with Fungicide I; assay type: physicochemical; conditions: for appearance during mixing / separation or precipitation after mixing: borate ester mixed with Fungicide I (TBGB, HGB 10%); for overall stability of mixture with Fungicide I: conclusion from the observations; for collapse of closed container (moisture drawn from air): mixture with Fungicide I in closed container, TBGB a week, THGB 18 days
# Description: A mixture of Fungicide I and a 10% tributylene glycol biborate (TBGB) was made by pouring the TBGB into the Fungicide I. The following observations were made while making and after making the mixture.
# The TBGB reacted with moisture in the air while pouring and formed a thin white film over the pour stream. […] This behavior was duplicated by opening the container and allowing it to come back to its normal shape and closing the container again. It is noted that TBGB in a fungicide mixture when open to the air will draw moisture from the air and hydrolyze to a form insolubles and result in an increase in the separated phase. The hazing during mixing and phase separation seen during the first test was identical to that observed during this mixing.
# The TBGB test was repeated using a mixture of 10% hexylene glycol biborate (HGB). The mixture was made by pouring the HGB into the Fungicide I composition. The following observations were made while making and after making the mixture:
# The container was closed. The crystalline material is soluble in water and isopropyl alcohol. A 10% HGB/mineral spirits solution was made to test for moisture adsorption from the air. […] The crystalline material is likely the hydroxy hexylene glycol borate compound formed by hydrolysis of the anhydride bond. The crystal formation in the HGB testing is similar to that observed in the first test in the test mixture storage drum.
# The basic observations are that both the TBGB and HGB react with various components of the Fungicide I mixture and react with moisture in the air.
# A mixture of tri hexylene glycol biborate (THGB) and Fungicide I was made. It was observed that the solution remains clear with no separation. Next, the mixture was left open to atmosphere for 90 days at 40% to 50% relative humidity conditions. […] A 10% evaporative loss of mineral spirits approximately every 14 days was replaced with new mineral spirits without any negative effects. […] The mixture was placed in a 0° F. freezer overnight. […] The mixture was placed in a 42° F. refrigerator for 63 hours.
# [2] = cited from earlier work
SMILES,"appearance of solution, container closed ([1]; 10% HGB/mineral spirits solution, container closed)","appearance of solution, container open to air ([1]; 10% HGB/mineral spirits solution, opened to air, over night)",appearance during mixing [1],separation or precipitation after mixing [1],overall stability of mixture with Fungicide I [1],"redissolution on heating ([1]; after freezer, heated to approximately 20 F with stirring)",collapse of closed container (moisture drawn from air) [1],"appearance after open storage ([1]; mixture with Fungicide I left open to atmosphere 90 days, 40% to 50% relative humidity)","appearance after freezer storage ([1]; mixture with Fungicide I, 0° F. freezer overnight)","appearance after refrigerator storage ([1]; mixture with Fungicide I, 42° F. refrigerator, 63 hours)",maximum boron concentration of saturated aqueous solution [2]
"CC1CC(C)(C)OB(OB2OC(C)CC(C)(C)O2)O1 (stereo not drawn) [HGB, hexylene glycol biborate]",remained clear without separation or solid precipitation,white crystal formation,remained clear during mixing,opaque white crystalline material immediately formed on the container surfaces,too reactive to form stable mixtures,–,–,–,–,–,–
"CC1CC(C)(C)OB(OC(C)CC(C)(C)OB2OC(C)CC(C)(C)O2)O1 (stereo not drawn) [THGB, tri hexylene glycol biborate]",–,–,remains clear,no separation,produces stable mixtures,dissolved all of the white solids,without any collapse,remained clear with no separation and no precipitation of solids,white solids were observed at the bottom of the container,remained clear without separation or precipitation,–
"CC1CCOB(OCCC(C)OB2OCCC(C)O2)O1 (stereo not drawn) [TBGB, tributylene glycol biborate]",–,–,immediately became hazy,brownish/red colored layer immediately began to form at the bottom of the container,too reactive to form stable mixtures,–,collapse slightly after a week,–,–,–,–
OB(O)O [boric acid],–,–,–,–,–,–,–,–,–,–,no more than one
